The test system of the assay is breast cancer cell lines. The assay is described as follows: Drug response (IC50, GDSC data) of breast cancer cell lines classified Signature 3-positive or -negative by SigMA. The class given is cell-based. As to conditions: five Signature 3-positive vs twelve Signature 3-negative breast cancer cell lines; p=0.044, Kolmogorov-Smirnov test. An excerpt:
To test the hypothesis that the presence of Signature 3 indicates susceptibility to PARP inhibition, the response of diverse cancer cell lines was examed to the two popular PARP inhibitors olaparib and velirapib (Supplementary Methods Section 12). The disclosed SigMA example algorithm was first applied to 700 cell lines from the Cancer Cell Line Encyclopedia (CCLE) project (Basu et al., 2013) to identify those with Signature 3. Mutation calls from a 1651-gene panel and copy number calls from single-nucleotide polymorphism (SNP) arrays were available for each cell line. In applying SigMA, a stringent filter was used to discriminate the cell lines with Signature 3 mutations from those without Signature 3 but with a large number of in vitro culture-associated mutations (Online Methods and Supplementary Methods Section 12). Also, cell lines with MSI signatures were removed to minimize their confounding effect (see Vilar Sanchez et al. (2009), and Supplementary FIG. 6f). […]
Among 1074 cell lines in total, the mutational spectra of 700 cell lines were analyzed of major tumor types with SigMA, but only 136 of these had drug response data for either olaparib or veliparib. […]

As to `O=C(c1cc(Cc2n[nH]c(=O)c3ccccc23)ccc1F)N1CCN(C(=O)C2CC2)CC1` [olaparib], the “fold decrease of IC50 values in Signature 3-positive vs Signature 3-negative cell lines” value is recorded as 2.6 fold.

(Values after patent publication US20220028483A1, “SYSTEMS AND METHODS FOR CLASSIFYING TUMORS” (PRESIDENT AND FELLOWS OF HARVARD COLLEGE, priority 2018, published 2022).)
